Measured values reported in ChEMBL document CHEMBL5303304, “EUbOPEN Chemogenomics Library - IncuCyte” (2023).

Experiments:
Assay type in all cases: toxicity, cell-based
[1] = system: U2OS; experiment: Incucyte cell viability with U2OS; conditions: human, 10 µM, compound concentration 10 uM
[2] = system: Fibroblast; experiment: Incucyte cell viability with human fibroblast; conditions: 10 µM, compound concentration 10 uM
[3] = system: HEK-293T; experiment: Incucyte cell viability with HEK293T; conditions: human, 10 µM, compound concentration 10 uM
Further: unitless GR value; below 1 slowed growth and below 0 cell loss.

Row | Structure (SMILES) | Growth Rate ([1]; 0 h, replicate number 1) | Growth Rate ([1]; 6 h, replicate number 1) | Growth Rate ([1]; 6 h, replicate number 2) | Growth Rate ([1]; 12 h, replicate number 1) | Growth Rate ([1]; 12 h, replicate number 2) | Growth Rate ([1]; 18 h, replicate number 1) | Growth Rate ([1]; 18 h, replicate number 2) | Growth Rate ([1]; 24 h, replicate number 1) | Growth Rate ([1]; 24 h, replicate number 2) | Growth Rate ([2]; 0 h, replicate number 1) | Growth Rate ([2]; 6 h, replicate number 2) | Growth Rate ([2]; 12 h, replicate number 1) | Growth Rate ([2]; 12 h, replicate number 2) | Growth Rate ([2]; 18 h, replicate number 1) | Growth Rate ([2]; 18 h, replicate number 2) | Growth Rate ([2]; 24 h, replicate number 1) | Growth Rate ([2]; 24 h, replicate number 2) | Growth Rate ([3]; 6 h, replicate number 1) | Growth Rate ([3]; 18 h, replicate number 1) | Growth Rate ([3]; 24 h, replicate number 1) | further results
1 | CCOC(=O)CS(=O)(=O)c1ccc([C@@H](CO)NC(=O)c2cc3c(Cl)c(Cl)c(C)cc3n2C)cc1 | -0.21 | -0.2 | 1 | -0.25 | 0.52 | -0.31 | 0.87 | -0.16 | 0.97 | -1 | -1 | -0.98 | -0.95 | -0.91 | -0.85 | -0.81 | -0.7 |  |  |  | Growth Rate ([3]; 0 h, replicate number 2): 0.13
2 | C=C1/C(=C\C=C2/CCC[C@]3(C)[C@@H]([C@H](C)CCCC(C)(C)O)CC[C@@H]23)C[C@@H](O)C[C@@H]1O [CALCITRIOL] | -0.07 | 0.27 | 0.45 | -0.16 | 0.63 | 0.83 | 0.67 | 0.91 | 0.67 |  | 0.1 | 0.49 | 0.64 | 0.64 |  | 0.96 |  | 0.8 | 0.44 | 0.53 | Growth Rate ([1]; 0 h, replicate number 2): 0.74; Growth Rate ([2]; 6 h, replicate number 1): 0.62; Growth Rate ([3]; 0 h, replicate number 2): -0.91; Growth Rate ([3]; 6 h, replicate number 2): 0.4; Growth Rate ([3]; 12 h, replicate number 1): 0.61; Growth Rate ([3]; 12 h, replicate number 2): 0.7; Growth Rate ([3]; 18 h, replicate number 2): 0.67; Growth Rate ([3]; 24 h, replicate number 2): 0.55
3 | C=CC(=O)Nc1ccc2[nH]c(=O)n(C3CCN(Cc4ccc(-c5ccc6c(c5)NC(=O)CO6)cc4)CC3)c2c1 [RL2578] | 0.69 | 0.83 |  | 0.76 | 0.91 | 0.75 | 0.78 | 0.93 | 0.62 | -1 | 0.95 | 0.87 | 0.71 | 0.72 | 0.52 | 0.45 | 0.51 | 0.24 | 0.28 | 0.26 | Growth Rate ([2]; 6 h, replicate number 1): 0.84; Growth Rate ([3]; 6 h, replicate number 2): 0.23; Growth Rate ([3]; 12 h, replicate number 1): 0.24; Growth Rate ([3]; 12 h, replicate number 2): 0.43; Growth Rate ([3]; 18 h, replicate number 2): 0.45; Growth Rate ([3]; 24 h, replicate number 2): 0.42
4 | CCn1c(-c2nonc2N)nc2ccccc21 [GW549034X] | -1 |  |  |  |  |  | 0.97 |  | 0.93 | -1 |  |  |  |  |  |  |  |  |  |  | Growth Rate ([2]; 0 h, replicate number 2): -0.96; Growth Rate ([3]; 0 h, replicate number 1): -1; Growth Rate ([3]; 0 h, replicate number 2): -0.14
5 | CC[C@H](C(=O)Nc1ccccc1N1CCCC1)c1ccccc1 |  |  |  |  |  |  | 0.84 |  | 0.84 |  | -0.59 |  | 0.33 | -0.04 | 0.67 | -0.08 | 0.9 | 0.92 |  |  | Growth Rate ([3]; 6 h, replicate number 2): 0.91
6 | COc1ccc(-c2coc3cc(O)cc(O)c3c2=O)cc1 [BIOCHANIN] | 0.85 | 1 |  |  | 0.77 |  |  | 0.95 | 0.93 | 0.87 | 0.58 | -0.08 | 0.69 | 0.21 |  |  | 0.94 | 0.75 |  |  | Growth Rate ([1]; 0 h, replicate number 2): -0.91; Growth Rate ([2]; 0 h, replicate number 2): -0.65; Growth Rate ([3]; 0 h, replicate number 2): 0.93; Growth Rate ([3]; 18 h, replicate number 2): 1
7 | Cc1ccc(S(=O)(=O)O)cc1.Cn1cc(Nc2nccc(N3CC4CCC(C3)N4C(=O)[C@@H]3CC3(F)F)n2)cn1 |  | 0.03 | 0.95 | -0.28 | 0.96 |  | 0.84 |  | 0.8 | 0.69 | 0.12 | 0.8 | 0.69 | 0.4 | 0.88 | 1 |  |  |  |  | Growth Rate ([1]; 0 h, replicate number 2): 0.58; Growth Rate ([2]; 0 h, replicate number 2): 0.55; Growth Rate ([2]; 6 h, replicate number 1): 0.01; Growth Rate ([3]; 0 h, replicate number 1): 0.13; Growth Rate ([3]; 6 h, replicate number 2): 0.93; Growth Rate ([3]; 18 h, replicate number 2): 0.98
8 | CN1CC(=O)N(C)c2cnc(Nc3ccc(NC(=O)Nc4cccc(C(=O)O)c4)cc3)nc21 | -0.94 | 0.82 | 0.73 | 0.91 | 0.75 | 0.89 | 0.97 | 0.95 | 1 | -1 |  |  | 0.81 |  | 0.99 |  |  |  | 0.83 | 0.72 | Growth Rate ([1]; 0 h, replicate number 2): 0.52; Growth Rate ([2]; 0 h, replicate number 2): -0.25; Growth Rate ([3]; 0 h, replicate number 1): -1
9 | CC[C@@H](Nc1c(C#N)c(-c2ccc(-c3cccc(C)c3F)cc2)nc2cnccc12)C(=O)O [BAY-091] |  | 0.82 |  | 0.7 |  | 0.68 |  | 0.81 |  | -0.38 | 0.39 | 0.86 | 0.58 | 0.96 | 0.73 | 0.88 | 0.84 | 0.68 | 0.86 | 0.78 | Growth Rate ([2]; 0 h, replicate number 2): -0.33; Growth Rate ([2]; 6 h, replicate number 1): 0.59; Growth Rate ([3]; 0 h, replicate number 2): 0.76; Growth Rate ([3]; 6 h, replicate number 2): 0.63; Growth Rate ([3]; 12 h, replicate number 1): 0.65; Growth Rate ([3]; 12 h, replicate number 2): 0.85; Growth Rate ([3]; 18 h, replicate number 2): 0.85; Growth Rate ([3]; 24 h, replicate number 2): 0.88
10 | COc1cc(-c2cncc(-c3cnn(C4CCNCC4)c3)c2)cc(OC)c1OC | -1 |  | 0.55 |  |  |  | 0.99 |  | 0.94 | 0.47 | 0.74 |  | 0.97 |  |  | 0.86 | 0.9 | 0.84 |  |  | Growth Rate ([3]; 6 h, replicate number 2): 0.78; Growth Rate ([3]; 12 h, replicate number 2): 0.82; Growth Rate ([3]; 18 h, replicate number 2): 0.73; Growth Rate ([3]; 24 h, replicate number 2): 0.77
11 | CCn1ccc(Nc2ncc3c(n2)-c2c(nn(C)c2-c2ccc(-c4cnn(C)c4)cc2Cl)CC3)n1 | -1 |  | 0.57 |  | 0.22 | 0.27 | 0.13 | 0.21 | -0.03 | -1 |  | 0.87 | 0.65 | 0.32 | 0.5 | 0.46 | 0.19 | -0.49 | -0.28 | -0.24 | Growth Rate ([2]; 6 h, replicate number 1): 0.64; Growth Rate ([3]; 6 h, replicate number 2): -0.71; Growth Rate ([3]; 12 h, replicate number 1): -0.39; Growth Rate ([3]; 12 h, replicate number 2): -0.54; Growth Rate ([3]; 18 h, replicate number 2): -0.43; Growth Rate ([3]; 24 h, replicate number 2): -0.33
12 | O=C(O)C[C@H]1CC[C@H](c2ccc(NC(=O)c3nnc(Nc4ccc(F)c(F)c4)o3)cc2)CC1 |  |  | 0.7 |  | 0.72 |  | 0.93 |  | 0.96 |  | 0.97 |  |  |  |  |  | 0.99 | 0.74 | 0.76 | 0.86 | Growth Rate ([3]; 0 h, replicate number 1): 0.29; Growth Rate ([3]; 0 h, replicate number 2): -0.23; Growth Rate ([3]; 12 h, replicate number 1): 0.69
13 | COCCc1ccc(-c2c(C)nc3c(N4CCOCC4)ccnn23)cn1 [JNJ-42396302] | -0.6 |  | 0.56 | 0.98 | 0.93 |  | 0.99 |  |  | 0.07 | 0.78 | 0.86 | 0.81 | 0.88 | 0.84 | 0.86 | 0.91 |  | 0.91 | 0.86 | Growth Rate ([1]; 0 h, replicate number 2): 0.07; Growth Rate ([3]; 0 h, replicate number 2): 0.44
14 | O=C(O)CCCCN(CCc1ccccc1OCc1ccc(CCc2ccccc2)cc1)Cc1ccc(C(=O)O)cc1 | 0.14 | 0.32 |  | 0.91 |  | 0.83 |  | 0.86 |  |  |  |  |  |  |  | 0.98 |  | 0.91 | 0.87 | 0.99 | Growth Rate ([2]; 0 h, replicate number 2): -0.44; Growth Rate ([2]; 6 h, replicate number 1): 0.92; Growth Rate ([3]; 0 h, replicate number 1): 0.96; Growth Rate ([3]; 0 h, replicate number 2): 0.47
15 | CCNCCNC(=O)c1c(C)[nH]c(/C=C2\C(=O)Nc3ccc(F)cc32)c1C |  |  |  |  |  | 0.78 | 0.77 | 0.69 | 0.7 |  |  | -1 | 0.44 |  | 0.18 |  | 0.1 | -0.62 | -0.32 | -0.09 | Growth Rate ([1]; 0 h, replicate number 2): -0.6; Growth Rate ([2]; 6 h, replicate number 1): -0.96; Growth Rate ([3]; 6 h, replicate number 2): -0.16; Growth Rate ([3]; 12 h, replicate number 1): -0.52; Growth Rate ([3]; 12 h, replicate number 2): -0.09; Growth Rate ([3]; 18 h, replicate number 2): 0.09; Growth Rate ([3]; 24 h, replicate number 2): 0.21
